The test system of assay [1] is Enterobacter cloacae ATCC 13 047. Description: serial dilution test in microtiter system (bacteriostasis, MIC). The format is cell-based. Particulars: ATCC13, liquid medium, 18 to 20 h at 37°C, read-out: MHK-Werte Eb. cloacae 13 047.
Assay [2] concerns Escherichia coli ATCC 11 775. The assay is described as above. Particulars: ATCC11, liquid medium, 18 to 20 h at 37°C, read-out: MHK-Werte E.coli ATCC 11 755. The class given is cell-based.
For assay [3], the system named is Klebsiella pneumoniae ATCC 10 031. Described as above. The format is cell-based. Particulars: ATCC10, liquid medium, 18 to 20 h at 37°C, read-out: MHK-Werte Kl. pneum. ATCC 10 031.
Assay [4] relates to Klebsiella pneumoniae BC 6. The description is as above. Particulars: BC6, liquid medium, 18 to 20 h at 37°C, read-out: MHK-Werte Kl. pneum. BC 6. The class given is cell-based.
In assay [5] the test system is Proteus mirabilis Hamburgensis. Described as above. The format is cell-based. Particulars: liquid medium, 18 to 20 h at 37°C, read-out: MHK-Werte Prot. mir. Hbg.
The next assay has as its system Proteus rettgeri BC 7. The assay is described as above. The format is cell-based. Particulars: Providencia rettgeri, BC7; liquid medium, 18 to 20 h at 37°C; read-out: MHK-Werte Prot. rettg. BC 7.
Assay [6] has as its system Pseudomonas aeruginosa Hamburgensis. Described as above. The format is cell-based. Particulars: liquid medium, 18 to 20 h at 37°C, read-out: MHK-Werte Pseud. aerug. Hbg.
Assay [7] has as its system Pseudomonas aeruginosa Walter. The description is as above. The class given is cell-based. Particulars: liquid medium, 18 to 20 h at 37°C, read-out: MHK-Werte Pseud. aerug. Walter.
For assay [8], the system named is Serratia marcescens ATCC 13 880. The description is as above. The format is cell-based. Particulars: ATCC13, liquid medium, 18 to 20 h at 37°C, read-out: MHK-Werte Serr. marcesc. ATCC 13 880.
Assay [9] deals with Staphylococcus aureus SG 511. Described as above. The format is cell-based. Particulars: SG511, liquid medium, 18 to 20 h at 37°C, read-out: MHK-Werte Staph. aureus SG 511.
The test system of a further assay is E.coli ATCC 11 775. Description: experimental intraperitoneal infection in mice, ED50 (survival). Particulars: Escherichia coli, ATCC 11 / ATCC 1175, sc, 168 h; female NMRI mice, i.p. infection, s.c. application, treated once, 7 days observation. The class given is in vivo, Mäuse. As to the method:
(§1) Eine Reihe der erfindungsgemäßen Verbindungen wurde in vivo bei experimentellen Infektionen an Mäusen untersucht. Man verwendete als pathogene Bakterien E.coli ATCC 11 775 und Pseudomonas aeruginosa Walter. Es wurde eine intraperitoneale Infektion mit 0,2 ml einer 5%igen Mucinsuspension der Bakterien gesetzt. Dies entspricht etwa 2x10^6 Keime E.coli bzw. 8x10^5 Keime Pseudomonas/Maus. Weibliche Mäuse vom Stamm NMRI wurden in Gruppen von jeweils 10 Tieren aufgeteilt, zwei Gruppen blieben unbehandelt, die restlichen Gruppen wurden mit verschiedenen Dosen der jeweiligen erfindungsgemäßen Penicilline zur Bestimmung der ED50 (Dosis, bei der 50 % der Tiere überleben) behandelt. Bei der E.coli-Infektion wurde einmal therapiert. Bei der Pseudomonas-Infektion wurde dreimal behandelt.
(§2) Der Beobachtungszeitraum betrug in beiden Fällen 7 Tage. Die Ergebnisse dieser Teste mit repräsentativen Vertretern der erfindungsgemäßen Penicilline sind in der Tabelle 3 dargestellt.

Assay [10] concerns Pseudomonas aeruginosa Walter. The description is as above. The class given is in vivo, Mäuse. Particulars: sc, 168 h, female NMRI mice, i.p. infection, s.c. application, treated three times, 7 days observation, read-out: ED50 Pseud. aerug. Walter. As to the method:
as §1, §2

The source of these data is patent publication EP0051773A1, “Penicillins, their salts, process for their preparation and pharmaceutical compositions containing them” (Dr. Karl Thomae GmbH, priority 1980, dated 1982).

≈ marks a conversion by molar mass, not a printed value.

For orientation: ED50 means the dose that gives a 50% effect, or the effect in half of the subjects.

In the case of `CC1(C)S[C@@H]2[C@H](NC(=O)C(NC(=O)Nc3cnc(NCc4ccc(S(N)(=O)=O)cc4)nc3O)c3ccc(O)cc3)C(=O)N2[C@H]1C(=O)O` (stereo partly drawn) [Verbindung 64], the MIC stood at 2 µg/mL (≈ 2.91 µM) in [1]; 0.12 µg/mL (≈ 0.175 µM) in assay [2]; 4 µg/mL (≈ 5.82 µM) in assay [3]; 4 µg/mL (≈ 5.82 µM) in assay [4]; 0.06 µg/mL (≈ 0.0874 µM) in assay [5]; 0.5 µg/mL (≈ 0.728 µM) in the assay with Proteus rettgeri BC 7. In addition, the MIC in assay [6] is 2 µg/mL (≈ 2.91 µM); in assay [7], 1 µg/mL (≈ 1.46 µM); in assay [8] it was 0.25 µg/mL (≈ 0.364 µM); in [9] it was 0.25 µg/mL (≈ 0.364 µM). The ED50 was determined as 2.4 mg/kg in the assay with E.coli ATCC 11 775 and 12.4 mg/kg in [10].
